Patent publication US12037324B2, “Biarylmethyl heterocycles” (Université de Montréal, priority 2016, dated 2024)

What was measured:
Type in all cases: cell-based
[1] = target: T1, hAT1R (Homo sapiens, UniProt P30556); test: BRET Gq biosensor assay, agonist response, HEK293 cells; settings: section of the 42nd table directly before the BRET P63 section
T1 sequence (P30556 1-359): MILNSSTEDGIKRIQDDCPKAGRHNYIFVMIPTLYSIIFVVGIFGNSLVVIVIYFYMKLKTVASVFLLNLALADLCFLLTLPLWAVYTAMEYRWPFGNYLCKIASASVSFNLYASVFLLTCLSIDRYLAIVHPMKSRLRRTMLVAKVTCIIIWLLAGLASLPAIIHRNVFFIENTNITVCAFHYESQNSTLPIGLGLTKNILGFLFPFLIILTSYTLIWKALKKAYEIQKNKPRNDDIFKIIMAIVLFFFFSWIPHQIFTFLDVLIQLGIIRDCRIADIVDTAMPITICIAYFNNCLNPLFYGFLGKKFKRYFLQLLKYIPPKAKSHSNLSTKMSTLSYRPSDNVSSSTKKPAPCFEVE
Outline: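 HEK293 cells co-transfected with signal-peptide-optimized hAT1R plus Gαq-Rluc, Gβ1 and GFP-Gγ1, assayed 48 h later in Tyrode's buffer pH 7.4. Coelenterazine (2 μM final) added, then compound; BRET2 (515/410 nm) read after 5 min at room temperature. EC50 by 4-parameter fit, normalized to unstimulated (0%) and maximal AngII (100%).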

[2] = target: T1, hAT1R; test: BRET β-arrestin2 biosensor assay, higher receptor expression (hAT1R 5 ng/well), HEK293 cells; settings: for EC50: High AT1R Expression
[3] = target: T2, AGTR1 (Homo sapiens, UniProt P30556); test: DiscoveRx β-arrestin2 recruitment assay (enzyme complementation, Pathunter CHO-K1 AGTR1 β-arrestin cell line); settings: DiscoveRx β-arrestin2 recruitment
T2 construct: host or cells: Pathunter CHO-K1 AGTR1 β-arrestin cell line (CHO-K1)
T2 sequence (P30556 1-359): T1 sequence (P30556 1-359)
Outline: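 CHO-K1 cells expressing AGTR1 with β-arrestin2 enzyme-complementation reporter, plated 14-16 h ahead in 1% serum medium, then exposed to compounds for 90 min at 37° C. Chemiluminescence read after 1 h detection. EC50 (agonist) or IC50 (antagonist) from 4-parameter logistic fit; activity as percentage of All maximal effect.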

SMILES | EC50 [1] [nM] | BRET β-Arrestin2 High AT1R Expression Ymax (%) [2] [%] | EC50 [2] [nM] | EC50 [3] [nM] | DiscoveRx β-arrestin2 Ymax (%) ([3]; maximal response) | DiscoveRx β-arrestin2 Ymax (%) [3] [%]
CCCCC(=O)N(Cc1ccc(-c2cc(-c3ccccc3)ccc2-c2nn[nH]n2)cc1)[C@]1(C(=O)O)CC[C@@H](C)CC1 [Example 278] | 1210 | 87.2 | 13 | 45.1 | 51.9 | 
CCOc1nc2cccc(C(=O)O)c2n1Cc1ccc(-c2cc(-c3ccc(C(=O)N(C)C)cc3)ccc2C(=O)O)cc1 [Example 320] | > 100000 | 86.8 | 173 | 40.7 | 55.7 | 
CCCCc1nc(Cl)c(C(=O)O)n1Cc1ccc(-c2cc(-c3cnn(C4CC4)c3)ccc2-c2nn[nH]n2)cc1 [Example 386] | 59100 | 66.7 | 45.2 | 8.4 | 27.3 | 
CCCCC1=NC2(CCCC2)C(=O)N1Cc1ccc(-c2cc(-c3ccccc3)ccc2-c2nn[nH]n2)nc1 [Example 451, 3-((6-(4-(1H-Tetrazol-5-yl)-[1,1′-biphenyl]-3-yl)pyridin-3-yl)methyl)-2-butyl-1,3-diazaspiro[4.4]non-1-en-4-one] | 4110 | 44.8 | 13700 | 23.3 |  | 11.4
CCCCc1ncc(C(=O)NCc2cccnn2)n1Cc1ccc(-c2cc(-c3ccccc3)ccc2-c2nn[nH]n2)cc1 [Example 355] | > 1000 | 92.5 | 23.3 | 8.6 | 42.4 | 
CCCCc1ncc(C(=O)Nc2ccc(C)nn2)n1Cc1ccc(-c2cc(-c3ccccc3)ccc2-c2nn[nH]n2)cc1 [Example 376] | 123 | 44.2 | 45.5 | 18.5 | 22.1 | 
CCCCC(=O)N(Cc1ccc(-c2cc(-c3ccc4ncccc4c3)ccc2-c2nn[nH]n2)cc1)C1(C(=O)O)CCCCC1 [Example 292] | > 100000 | 36.5 | 72.2 | 177 | 32.1 | 
CCCCC(=O)N(Cc1ccc(-c2cc(Oc3cccc(OC(F)(F)F)c3)ccc2-c2nn[nH]n2)cc1)[C@H](C(=O)O)C(C)C [Example 437] | > 100000 | 16.4 | 168 | 3920 |  | 26.4
CCCCC(=O)N(Cc1ccc(-c2cc(-c3ccc(NC(C)=O)cc3)ccc2-c2nn[nH]n2)cc1)C1(C(=O)O)CCCCC1 [Example 291] | > 100000 | 9.6 | 1650 | 134 | 10.0 | 
CCCCc1nc(Cl)c(C(=O)O)n1Cc1ccc(-c2cc(N3CCCC(F)(F)C3)ccc2-c2nn[nH]n2)cc1 [Example 416, 2-butyl-4-chloro-1-((5′-(3,3-difluoropiperidin-1-yl)-2′-(2H-tetrazol-5-yl)-[1,1′-biphenyl]-4-yl)methyl)-1H-imidazole-5-carboxylic acid] | > 100000 | 69.0 | 115 | 18 | 29.5 | 
CCCCC1=NC2(CCCC2)C(=O)N1Cc1ccc(-c2cc(-c3ccccc3)ccc2-c2nn[nH]n2)cn1 [Example 452, 3-((5-(4-(2H-Tetrazol-5-yl)-[1,1′-biphenyl]-3-yl)pyridin-2-yl)methyl)-2-butyl-1,3-diazaspiro[4.4]non-1-en-4-one] | 44.8 | 84.6 | 33.8 | 8.1 |  | 36.1
O=C(O)c1cccc2nc(O)n(Cc3ccc(-c4cc(-c5ccccc5)ccc4-c4nn[nH]n4)cc3)c12 [Example 317] | 17100 | 39.8 | 319 | 87.2 | 51.5 | 
CCCCc1nc(Cl)c(C(N)=O)n1Cc1ccc(-c2cc(-c3ccccc3)ccc2-c2nn[nH]n2)cc1 [Example 393, 1-((6′-(2H-tetrazol-5-yl)-[1,1′:3′,1″-terphenyl]-4-yl)methyl)-2-butyl-4-chloro-1H-imidazole-5-carboxamide] | 48.8 | 86.1 | 12 | 9.1 | 41.2 | 
CCCc1nc(CC)c(C(=O)OCC)n1Cc1ccc(-c2cc(-c3ccccc3)ccc2-c2nn[nH]n2)cc1 [Example 395, ethyl 1-((6′-(2H-tetrazol-5-yl)-[1,1′:3′,1″-terphenyl]-4-yl)methyl)-4-ethyl-2-propyl-1H-imidazole-5-carboxylate] | 12.7 | 92.4 | 20.4 | 16.1 | 54.1 | 
CCCCC(=O)N(Cc1ccc(-c2cc(-c3ccccc3)ccc2-c2nn[nH]n2)cc1)C1(C(=O)O)CCOCC1 [Example 276] | 401 | 73.6 | 77.9 | 50 | 50.9 | 
CCCc1nc(C(C)(C)O)c(C(=O)[O-])n1Cc1ccc(-c2cc(-c3ccccc3)ccc2-c2noc(=O)[nH]2)cc1.[Na+] [Example 403, 4-(2-hydroxypropan-2-yl)-1-((6′-(5-oxo-4,5-dihydro-1,2,4-oxadiazol-3-yl)-[1,1′:3′,1″-terphenyl]-4-yl)methyl)-2-propyl-1H-imidazole-5-carboxylic acid, Na+] | 70.9 | 88.6 | 9.2 | 14.2 | 61.4 | 
CCCCc1ncc(C(=O)NCC(C)C)n1Cc1ccc(-c2cc(-c3ccccc3)ccc2-c2nn[nH]n2)cc1 [Example 368] | 96.1 | 82.6 | 32.5 | 59.8 | 39.1 | 
CCCCc1ncc(C(=O)NC2CCCC2)n1Cc1ccc(-c2cc(-c3ccccc3)ccc2-c2nn[nH]n2)cc1 [Example 377] | 146 | 80.9 | 25.4 | 49.5 | 39.0 | 
CCCCc1nc(Cl)c(C(=O)O)n1Cc1ccc(-c2cc(-c3cnn(C)c3)ccc2-c2nn[nH]n2)cc1 [Example 389] | 2020 | 35.3 | 189 | 91.8 | 26.7 | 
CCCCc1ncc(C(=O)NC2COC2)n1Cc1ccc(-c2cc(-c3ccccc3)ccc2-c2nn[nH]n2)cc1 [Example 358] | 44.7 | 88.8 | 21.4 | 10.1 | 40.2 | 
CCCCC(=O)N(Cc1ccc(-c2cc(-c3ccccc3)ccc2-c2nn[nH]n2)cc1)[C@]1(C(=O)O)CC[C@H](O)CC1 [Example 284, (1S,4S)-1-(N-((6′-(2H-Tetrazol-5-yl)-[1,1′:3′,1″-terphenyl]-4-yl)methyl)pentanamido)-4-hydroxycyclohexanecarboxylic acid] | 151 | 92.9 | 33 | 21.1 | 62.7 | 
CCOc1nc2cccc(C(=O)O)c2n1Cc1ccc(-c2cc(-c3cccnc3OC)ccc2-c2noc(=O)[nH]2)cc1 [Example 329] | 31.5 | 91.4 | 2.8 | 7.1 | 77.6 | 
CCOc1nc2cccc(C(=O)O)c2n1Cc1ccc(-c2cc(N3CCCC(F)(F)C3)ccc2C(=O)O)cc1 [Example 315] | > 100000 | 29.1 | 1840 | 242 | 21.5 | 
CCCCc1nc(Cl)c(C(=O)O)n1Cc1ccc(-c2cc(-c3cnn(C(F)F)c3)ccc2-c2nn[nH]n2)cc1 [Example 387] | 3420 | 81.9 | 18.2 | 16.6 | 32.8 | 
CCCCC(=O)N(Cc1ccc(-c2cc(-c3ccccc3)ccc2-c2nn[nH]n2)cc1)C(C)(C)C(=O)O [Example 268, 2-(N-((6′-(2H-Tetrazol-5-yl)-[1,1′:3′,1″-terphenyl]-4-yl)methyl)pentanamido)-2-methylpropanoic acid] | 1090 | 73.8 | 1030 | 628 | 39.8 | 
